This is an account of results in ChEMBL document CHEMBL1201862, “PubChem BioAssay data set” (2004).

Among the test systems are SK-OV-3; UACC-257; SNB-19; UO-31; MOLT-4; HCC 2998; IGROV-1; SK-MEL-2; KM-20L2; NCI-H226; 786-0; M19-MEL; SNB-75; M14; HCT-15; OVCAR-5.
Common to all, as to assay: NCI tumour cell line growth inhibition, 48 h

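Values below derive from 48-hour exposures of cells grown in 96-well plates, with endpoints linearly interpolated between the two concentrations bracketing the appropriate inhibition level. Abbreviation: GI50, concentration required for 50% inhibition of growth.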 Activity calls are given as the source filed them. Rule as the data show it: active = GI50 up to about 1.1 µM and inactive = higher.

As for `COc1ccc(C(=O)CC(=O)C(=O)Nc2ccc(C)c(C)c2)cc1`, the GI50 in the assay with SK-OV-3 was > 100 µM (inactive); with UACC-257, > 100 µM (inactive); in the assay on SNB-19, > 100 µM (inactive); in the assay with UO-31, 98.6 µM (inactive); in the assay on MOLT-4, > 53.2 µM (inactive); in the assay with HCC 2998, 97.3 µM (inactive). Also, the GI50 in the assay with IGROV-1 was > 93.3 µM (inactive); with SK-MEL-2, > 100 µM (inactive); in the assay with KM-20L2 it was > 77.1 µM (inactive); in the assay on NCI-H226, > 100 µM (inactive); in the assay with 786-0, > 69 µM (inactive); with M19-MEL, > 100 µM (inactive). The GI50 was 11.3 µM (inactive) with SNB-75, > 100 µM (inactive) with M14 and 31.3 µM in the assay on HCT-15.

For `CC1=NN(C(=O)CC(=O)Nc2cccc(Cl)c2)C(=O)C1/N=N/c1ccc(S(N)(=O)=O)cc1` (stereo not drawn), the GI50 in the assay with SK-OV-3, in the assay with UACC-257, in the assay on SNB-19, in the assay with OVCAR-5, in the assay with UO-31 and in the assay on MOLT-4 was > 100 µM (inactive) each time. For the same compound, the GI50 with HCC 2998, with IGROV-1, in the assay with SK-MEL-2, in the assay with KM-20L2, in the assay with NCI-H226 and in the assay with 786-0 was > 100 µM (inactive) in each case. Besides, the GI50 in the assay with M19-MEL was > 100 µM (inactive); with SNB-75 it was > 100 µM (inactive); with M14, > 100 µM (inactive); in the assay with HCT-15, above 100 µM.

`O=C(c1ccccc1)c1nnn(Cc2ccccc2Cn2nnc(C(=O)c3ccccc3)c2C(=O)c2ccccc2)c1C(=O)c1ccccc1`: the GI50 in the assay with SK-OV-3, in the assay with UACC-257, in the assay on SNB-19, with OVCAR-5, in the assay on UO-31 and in the assay on MOLT-4 was > 100 µM (inactive) in each case. In addition, the GI50 in the assay with HCC 2998 was > 100 µM (inactive); in the assay with IGROV-1, 94.4 µM (inactive); in the assay with SK-MEL-2 it was > 100 µM (inactive); in the assay with KM-20L2, > 100 µM (inactive); in the assay with NCI-H226, 47.4 µM (inactive); with 786-0, > 100 µM (inactive). Besides, the GI50 in the assay on M19-MEL is > 100 µM (inactive); in the assay on SNB-75, > 100 µM (inactive); in the assay with M14, > 100 µM (inactive); in the assay on HCT-15 it was above 100 µM.

For `CCCCCCC(=O)CC(=O)C(=O)Nc1ccccc1C`, the GI50 in the assay on SK-OV-3, with UACC-257, in the assay on SNB-19, in the assay with OVCAR-5, with UO-31 and in the assay with MOLT-4 was > 100 µM (inactive) in each case. Besides, the GI50 in the assay on HCC 2998 is > 100 µM (inactive); in the assay with IGROV-1, > 100 µM (inactive); in the assay with SK-MEL-2, > 100 µM (inactive); in the assay on KM-20L2 it was > 100 µM (inactive); with NCI-H226, > 100 µM (inactive); in the assay with 786-0, > 55.5 µM (inactive). For the same compound, the GI50 in the assay with M19-MEL is > 100 µM (inactive); in the assay with SNB-75, > 100 µM (inactive); with M14 it was > 100 µM (inactive); in the assay on HCT-15 it was above 44.4 µM.

`COc1ccc(-c2c(C3=NCCN3)nnn2-c2ccccc2)cc1`: the GI50 with SK-OV-3, in the assay with UACC-257, with SNB-19, with OVCAR-5, in the assay on UO-31 and in the assay with MOLT-4 was > 100 µM (inactive) each time. The GI50 in the assay on HCC 2998, in the assay with IGROV-1, in the assay with SK-MEL-2, with KM-20L2, in the assay with NCI-H226 and in the assay with 786-0 was > 100 µM (inactive) throughout. The GI50 with M19-MEL was > 100 µM (inactive); in the assay with SNB-75 it was 98.9 µM (inactive); in the assay with M14 it was > 100 µM (inactive); in the assay with HCT-15, above 100 µM.

Consider `CCOc1ccccc1/N=N/c1c(-c2ccccc2)nn(C(=O)CC(=O)Nc2cccc(C)c2)c1-c1ccccc1`, for which the GI50 with SK-OV-3 is > 100 µM (inactive); with UACC-257, > 100 µM (inactive); with SNB-19, > 100 µM (inactive); in the assay with OVCAR-5 it was > 100 µM (inactive); with UO-31 it was 35.2 µM (inactive); in the assay on MOLT-4, > 100 µM (inactive). Moreover, the GI50 was 22.7 µM (inactive) in the assay with HCC 2998; > 100 µM (inactive) in the assay with IGROV-1; > 100 µM (inactive) with SK-MEL-2; > 100 µM (inactive) in the assay with KM-20L2; > 100 µM (inactive) in the assay on NCI-H226; > 100 µM (inactive) in the assay on 786-0. For the same compound, the GI50 in the assay with M19-MEL was > 100 µM (inactive); in the assay with SNB-75, 27.4 µM (inactive); with M14, > 100 µM (inactive).

As to `CCc1ccccc1NC(=O)C1=C(C)NC(C)=C(C(=O)Nc2ccccc2CC)C1c1ccc(NC(C)=O)cc1`, the GI50 is > 100 µM (inactive) in the assay with SK-OV-3; 36.3 µM (inactive) with UACC-257; 92.7 µM (inactive) with SNB-19; > 100 µM (inactive) with OVCAR-5; 35.2 µM (inactive) with UO-31; 15.3 µM (inactive) in the assay with MOLT-4. Moreover, the GI50 is 19.5 µM (inactive) with HCC 2998; 28.4 µM (inactive) with IGROV-1; 22.4 µM (inactive) with SK-MEL-2; 16.4 µM (inactive) in the assay on KM-20L2; 29.4 µM (inactive) in the assay on NCI-H226; 37.8 µM (inactive) in the assay with 786-0. Also, the figures for the GI50 in the assay with M19-MEL, in the assay on SNB-75 and in the assay with M14 were 32.7 µM (inactive), 21.4 µM (inactive) and 39 µM (inactive), respectively.

`CSC1=Nc2ccccc2N=C(c2ccccc2)C1`: the GI50 is > 100 µM (inactive) in the assay with SK-OV-3; 33.1 µM (inactive) in the assay on UACC-257; > 100 µM (inactive) in the assay with SNB-19; 67.1 µM (inactive) in the assay on OVCAR-5; 38 µM (inactive) in the assay on UO-31; 27.9 µM (inactive) with MOLT-4. Also, the GI50 was 62.2 µM (inactive) in the assay on HCC 2998; > 100 µM (inactive) in the assay on IGROV-1; > 100 µM (inactive) with SK-MEL-2; 35.4 µM (inactive) in the assay on KM-20L2; > 100 µM (inactive) in the assay on NCI-H226; 34.5 µM (inactive) in the assay on 786-0. The GI50 in the assay with M19-MEL is 54.6 µM (inactive); with SNB-75, 66.5 µM (inactive); in the assay with M14, > 100 µM (inactive); with HCT-15, 33.3 µM.

`CC(C)(Oc1ccc(/C=C/C(=O)c2ccccc2)cc1)C(=O)Nc1c(Cl)cccc1Cl`: the GI50 with SK-OV-3, with UACC-257, in the assay with SNB-19, in the assay on OVCAR-5, in the assay on UO-31 and in the assay with MOLT-4 was > 10 µM (inactive) in each case. Besides, the GI50 in the assay with HCC 2998, with IGROV-1, in the assay with SK-MEL-2, in the assay with KM-20L2, with NCI-H226 and with 786-0 was > 10 µM (inactive) throughout. In addition, the GI50 with M19-MEL is > 10 µM (inactive); with SNB-75 it was > 10 µM (inactive); with M14 it was > 10 µM (inactive); in the assay with HCT-15 it was above 10 µM.

`Cc1nc(Nc2ccc(Cl)cc2)sc1C(=O)NNC(=O)C(=O)NN`: the GI50 with SK-OV-3 is 22 µM (inactive); in the assay on UACC-257, 25.1 µM (inactive); with SNB-19, 21.3 µM (inactive); in the assay on OVCAR-5 it was 17 µM (inactive); in the assay with UO-31, 16.6 µM (inactive); in the assay on MOLT-4, 19.5 µM (inactive). Further, the GI50 in the assay with HCC 2998 is 20 µM (inactive); in the assay on IGROV-1, 19.1 µM (inactive); in the assay on SK-MEL-2 it was 17.6 µM (inactive); with KM-20L2 it was 16.3 µM (inactive); in the assay with NCI-H226, 20.3 µM (inactive); in the assay on 786-0, 17.3 µM (inactive). Further, the GI50 with M19-MEL is 19.2 µM (inactive); in the assay with SNB-75 it was 23.7 µM (inactive); with M14, 18.6 µM (inactive); in the assay with HCT-15, 17.1 µM.

As to `CC(C)C(NCc1c2ccccc2nc2ccccc12)C(=O)O` (stereo not drawn), the GI50 is > 100 µM (inactive) in the assay with SK-OV-3; 54.5 µM (inactive) in the assay with UACC-257; > 100 µM (inactive) with OVCAR-5; 15.2 µM (inactive) in the assay on MOLT-4; 47.9 µM (inactive) in the assay with HCC 2998; 27.4 µM (inactive) in the assay on IGROV-1. The GI50 in the assay on SK-MEL-2 is 62.2 µM (inactive); in the assay on KM-20L2 it was 58.2 µM (inactive); with NCI-H226 it was > 100 µM (inactive); in the assay with 786-0 it was 61.2 µM (inactive); in the assay on M19-MEL, 33 µM (inactive); in the assay on SNB-75, 61.8 µM (inactive). Also, the GI50 with M14 is 62.4 µM (inactive); with HCT-15, 35.7 µM.

With `O=[N+]([O-])c1ccc(-n2nnc(C3=NCCN3)c2-c2ccc(Cl)cc2)cc1`, the GI50 in the assay with SK-OV-3 was > 100 µM (inactive); in the assay with UACC-257, > 100 µM (inactive); in the assay with SNB-19 it was > 100 µM (inactive); in the assay on OVCAR-5, > 100 µM (inactive); in the assay on UO-31 it was 83.2 µM (inactive); in the assay with MOLT-4, 65.3 µM (inactive). The GI50 with HCC 2998, in the assay on IGROV-1, with SK-MEL-2, with KM-20L2, in the assay on NCI-H226 and in the assay on 786-0 was > 100 µM (inactive) throughout. In addition, the GI50 in the assay with M19-MEL is > 100 µM (inactive); in the assay on SNB-75, 83.6 µM (inactive); with M14, > 100 µM (inactive); in the assay on HCT-15, above 100 µM.

Regarding `COC1(OC)C2(Cl)C3=CCCC=C3C1(Cl)C(Cl)=C2Cl`, the GI50 with SK-OV-3 was 26 µM (inactive); in the assay with UACC-257, 28.4 µM (inactive); in the assay with SNB-19 it was 26.1 µM (inactive); in the assay with OVCAR-5, 23.7 µM (inactive); in the assay with UO-31, 21.7 µM (inactive); in the assay on MOLT-4 it was 18.4 µM (inactive). Besides, the GI50 in the assay on HCC 2998 was 29.2 µM (inactive); in the assay with IGROV-1, 36.5 µM (inactive); in the assay on SK-MEL-2, 16.9 µM (inactive); with KM-20L2, 23.2 µM (inactive); with NCI-H226, 45.7 µM (inactive); in the assay on 786-0, 27.4 µM (inactive). The GI50 in the assay with M19-MEL was 18.8 µM (inactive); in the assay with SNB-75, 23.3 µM (inactive); in the assay with M14, 13.2 µM (inactive); in the assay on HCT-15, 27.5 µM.
